The test system of series [1] is C6. The series is described as follows: CCK-8 cell viability, C6 brain glioma cell line. The conditions noted are these: serum-free medium, 24 hours, mean ± SD of 2 to 3 experiments. It counts as cell-based, human. On the procedure:
(§1) To identify the anticancer effect of the compounds L1, L2, and L3 according to Examples 1 to 3 of the present disclosure, and the complexes L1Pt, L2Pt, and L3Pt according to Examples 4 to 6 of the disclosure, the cell viability analysis of cancer cells using CCK-8 was performed on several cancer cell lines (colorectal cancer cell line (HT-29 cell line), breast cancer cell line (MCF-7 and MDA-MB-231), cervical cancer cell line (HeLa cell line), liver cancer cell line (Huh-7 and HepG2), brain glioma cell line (C6), lung cancer (A549), prostate cancer (PC3), kidney cancer (Caki-2), normal liver cell line (AML-12), embryonic kidney cell line (HEK-293), neural stem cell line (NE-4C) and normal breast epithelial cell line (MCF10a)).
(§2) CCK-8 (Cell counting kit-8) is analyzed using a highly water-soluble tetrazolium salt-[…]. [2-(2-methoxy-4-nitrophenyl)-3-(4-nitrophenyl)(2,4-disulfophenyl)-2H-tetrazolium, monosodium salt] is reduced under the presence of an electron medium to produces a water-soluble formazan orange dye. The amount of the formazan dye produced by dehydrogenase in a cell is directly proportional to the number of living cells.
(§3) In an experimental method for evaluating the properties of the compounds according to the present disclosure, various cancer cell lines derived from humans and normal cell lines of each tissue derived from humans and mice were used in this experiment. A complete growth medium corresponding to each cell line and having 10% of heat-inactivated FBS added thereto was used to maintain corresponding cells. The maintained cells were suspended in a volume of 200 μl at a density of 1 or 1.5×10^4 cells and planted in each well of a 96 well plate. The cells were attached to a 37° C. and 5% CO2 incubator for more than 14 hours, and we waited for a stable state. The next day, we removed the medium from the well. 100 μl of serum-free medium containing drugs of various concentrations (0 (control), 2.5, 5, 10, 20, 30, 40, 50, 100, 200 μM) was added to each well and the cells was cultured therein. On 22 hours after the incubation, 10 μl of CCK-8 solution was added to each well, followed by incubation for 2 hours. A plate on which the culture was completed was measured in terms of absorbance at 450 nm using a microplate reader.
(§4) Cell Viability Calculation:
(§5) • A: Absorbance value measured in a control well • B: Absorbance value measured in a well containing the drug
(§6) In Table 1 below, each compound was applied to the cells at 0, 2.5, 5, 10, 20, 30, 40, 50, 100, and 200 μM, and the cells was cultured in a medium free of serum for 24 hours. The measured absorbance value was converted to a % value based on a value of 0, such that a IC50 value was calculated. Each experiment was performed 2 to 3 times and a standard deviation value was obtained.

Series [2] deals with MCF-7. The series is described as follows: CCK-8 cell viability, MCF-7 breast cancer cell line. In kind it is cell-based, human. Conditions: serum-free medium, 24 hours, mean ± SD of 2 to 3 experiments. On the procedure:
as §1, §2, §3, §4, §5, §6

Series [3] relates to HT-29 cell line. As to the kind of experiment: CCK-8 cell viability, HT-29 colorectal cancer cell line. The conditions noted are these: serum-free medium, 24 hours, mean ± SD of 2 to 3 experiments. In kind it is cell-based, human. On the procedure:
as §1, §2, §3, §4, §5, §6

Series [4] deals with Huh-7. As to the kind of experiment: CCK-8 cell viability, Huh-7 liver cancer cell line. It counts as cell-based, human. Conditions: serum-free medium, 24 hours, mean ± SD of 2 to 3 experiments. As to the method: as §1, §2, §3, §4, §5, §6
The test system of series [5] is A549. As to the kind of experiment: CCK-8 cell viability, A549 lung cancer cell line. In kind it is cell-based, human. The conditions noted are these: serum-free medium, 24 hours, mean ± SD of 2 to 3 experiments. As to the method:
as §1, §2, §3, §4, §5, §6

For series [6], the system named is HEK-293. The series is described as follows: CCK-8 cell viability, HEK-293 embryonic kidney cell line. In kind it is cell-based. The conditions noted are these: serum-free medium, 24 hours, mean ± SD of 2 to 3 experiments, read-out: IC50 HEK293 (embryonic kidney). On the procedure: as §1, §2, §3, §4, §5, §6
The test system of series [7] is Caki-2. The series is described as follows: CCK-8 cell viability, Caki-2 kidney cancer cell line. In kind it is cell-based, human. The conditions noted are these: serum-free medium, 24 hours, mean ± SD of 2 to 3 experiments. As to the method:
as §1, §2, §3, §4, §5, §6

Series [8] has as its system MCF10a. The series is described as follows: CCK-8 cell viability, MCF10a normal breast epithelial cell line. The conditions noted are these: for IC50: serum-free medium, 24 hours, CCK-8, mean ± SD of 2 to 3 experiments. It counts as cell-based. On the procedure: as §1, §2, §3, §4, §5, §6
Series [9] concerns NE-4C. As to the kind of experiment: CCK-8 cell viability, NE-4C neural stem cell line. It counts as cell-based. The conditions noted are these: for IC50: serum-free medium, 24 hours, CCK-8, mean ± SD of 2 to 3 experiments, read-out: IC50 NC-4C (Neural stem cell). On the procedure: as §2, §3, §4, §5, §6
The test system of series [10] is HeLa cell line. As to the kind of experiment: CCK-8 cell viability, HeLa cervical cancer cell line. It counts as cell-based, human. The conditions noted are these: serum-free medium, 24 hours, mean ± SD of 2 to 3 experiments. As to the method:
as §1, §2, §3, §4, §5, §6

For series [11], the system named is PC3. As to the kind of experiment: CCK-8 cell viability, PC3 prostate cancer cell line. In kind it is cell-based, human. The conditions noted are these: serum-free medium, 24 hours, mean ± SD of 2 to 3 experiments. On the procedure:
as §1, §2, §3, §4, §5, §6

The subject of series [12] is MDA-MB-231. As to the kind of experiment: CCK-8 cell viability, MDA-MB-231 breast cancer cell line. In kind it is cell-based, human. Conditions: serum-free medium, 24 hours, mean ± SD of 2 to 3 experiments. On the procedure:
as §1, §2, §3, §4, §5, §6

For series [13], the system named is AML12. The series is described as follows: CCK-8 cell viability, AML-12 normal liver cell line. In kind it is cell-based. The conditions noted are these: for IC50: serum-free medium, 24 hours, CCK-8, mean ± SD of 2 to 3 experiments. On the procedure: as §2, §3, §4, §5, §6
Series [14] deals with several cancer cell lines. The series is described as follows: CCK-8 cell viability, panel of cancer cell lines compared in words (FIGS. 3a to 3e). In kind it is cell-based, human. The conditions noted are these: Log IC50, FIGS. 3a to 3e; no comparator. On the procedure: as §1, §2, §3
Further, FIGS. 3a to 3e show a graph in which a IC50 value which is obtained based on 2 to 3 times executions of the cell viability analysis is converted to a Log IC50 value. […] The comparative reliability values for BTA were expressed as […], ##p<0.01, and ## #p<0.001. A red line represents the value of cisplatin. A blue line represents the value of BTA.

Series [15] concerns HepG2. The series is described as follows: CCK-8 cell viability, HepG2 liver cancer cell line. In kind it is cell-based, human. The conditions noted are these: serum-free medium, 24 hours, mean ± SD of 2 to 3 experiments. On the procedure: as §1, §2, §3, §4, §5, §6

On to `O=C(Nc1ccc(-c2nc3ccccc3s2)cc1)C1CNC(c2ccccn2)=N1.[Cl][Pt][Cl]` (stereo not drawn) [Example L3Pt], for which the IC50 (usually the concentration that gives 50% inhibition) is more than 500 µM in series [1]; more than 500 µM in series [2]; more than 500 µM in [3]; 173 ± 24.3 µM in [4]; more than 500 µM in series [5]; 206 ± 7.45 µM in series [6]. Further, the IC50 in series [7] was more than 500 µM; in series [8] it was more than 500 µM; in [9], 32.4 ± 6.02 µM; in [10], more than 500 µM; in series [11], more than 500 µM; in [12], more than 500 µM. Moreover, the half-maximal inhibitory concentration (IC50) in series [13] and in series [15] was more than 500 µM each time. Besides, in series [8] (breast epithelial cells (MCF10a), FIG. 4), the “cytotoxicity against breast epithelial cells, in words” value was “weaker cytotoxicity or no cytotoxicity than cisplatin and BTA did”. For the same compound, the “toxicity against brain neurons, in words” value in [9] (brain neurons (NE-4C), FIG. 4) is on record as “greater toxicity than BTA did”. Also, in [13] (normal hepatocytes (AML12), FIG. 4), the “toxicity against normal hepatocytes, in words” value is reported as “did not exhibit liver cytotoxicity”. Besides, in series [14], the “effect on cancer cell lines, in words” value is on record as “only exerts cell toxicity effects on liver cancer”.

Consider “benzothiazole aniline [BTA, reference compound]”, for which the IC50 in series [1] was 425 ± 47.8 µM; in series [2] it was 104 ± 28.6 µM; in series [3] it was 275 ± 5.03 µM; in series [4] it was 406 ± 35.7 µM; in [5] it was more than 500 µM; in series [6], more than 500 µM. In addition, the IC50 in [7] is 463 ± 44.1 µM; in [8], 401 ± 136 µM; in [9] it was 60.9 ± 2.93 µM; in series [10], 76.4 ± 23.4 µM; in series [11], 182 ± 7.79 µM; in series [12], more than 500 µM. Besides, the IC50 is more than 500 µM in series [13] and 52 ± 5.71 µM in series [15]. Also, the “effect on cancer cell lines, in words” value in series [14] was “did not have greater effect on colorectal cancer, brain glioma, and lung cancer”.

The values are drawn from patent US12098147B2, “Compound having novel structure, complex comprising same, anti-cancer pharmaceutical composition, and anti-cancer drug” (ETNOVA THERAPEUTICS CORP., priority 2018, dated 2024).
